According to ChEMBL document CHEMBL1201861, “Genomics of Drug Sensitity in Cancer screening data, Wellcome Trust Sanger Institute”:

Columns and labels:
Assay in all cases: cells
Format in all cases: functional, cell-based, Homo sapiens
D-423MG = conditions: Homo sapiens, D-423MG
Description: SANGER: Inhibition of human D-423MG cell growth in a cell viability assay.

DBTRG-05MG = conditions: Homo sapiens, DBTRG-05MG;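 note: cell viability assay measuring growth inhibition of human DBTRG-05MG cells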
Description: SANGER: Inhibition of human DBTRG-05MG cell growth in a cell viability assay.

DOK = conditions: Homo sapiens, DOK;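 note: cell viability assay read-out, values reflect inhibition of cell growth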
Description: SANGER: Inhibition of human DOK cell growth in a cell viability assay.

EFM-19 = conditions: Homo sapiens, EFM-19;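 note: growth inhibition of human EFM-19 cells, measured in a cell viability assay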
Description: SANGER: Inhibition of human EFM-19 cell growth in a cell viability assay.

EFO-21 = conditions: Homo sapiens, EFO-21;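 note: growth inhibition of EFO-21 cells measured with a viability assay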
Description: SANGER: Inhibition of human EFO-21 cell growth in a cell viability assay.

EW-22 = conditions: Homo sapiens, EW-22;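 note: growth inhibition of the EW-22 cell line, measured with a cell viability readout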
Description: SANGER: Inhibition of human EW-22 cell growth in a cell viability assay.

HGC-27 = conditions: Homo sapiens, HGC-27;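 note: growth inhibition of human HGC-27 cells, read out in a cell viability assay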
Description: SANGER: Inhibition of human HGC-27 cell growth in a cell viability assay.

HOS = conditions: Homo sapiens, HOS;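 note: growth inhibition of human HOS cells, read out with a cell viability assay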
Description: SANGER: Inhibition of human HOS cell growth in a cell viability assay.

HSC-3 = conditions: Homo sapiens, HSC-3
Description: SANGER: Inhibition of human HSC-3 cell growth in a cell viability assay.

HT-1080 = conditions: Homo sapiens, HT-1080
Description: SANGER: Inhibition of human HT-1080 cell growth in a cell viability assay.

HT-29 = conditions: Homo sapiens, HT-29;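 note: growth inhibition of human HT-29 cells, read out by a cell viability assay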
Description: SANGER: Inhibition of human HT-29 cell growth in a cell viability assay.

IGR-1 = conditions: Homo sapiens, IGR-1;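 note: growth inhibition of human IGR-1 cells, read out with a cell viability assay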
Description: SANGER: Inhibition of human IGR-1 cell growth in a cell viability assay.

KYSE-180 = conditions: Homo sapiens, KYSE-180;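 note: growth inhibition of KYSE-180 cells, read out with a cell viability assay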
Description: SANGER: Inhibition of human KYSE-180 cell growth in a cell viability assay.

KYSE-450 = conditions: Homo sapiens, KYSE-450;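 note: cell growth inhibition measured by a viability assay in human KYSE-450 cells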
Description: SANGER: Inhibition of human KYSE-450 cell growth in a cell viability assay.

LK-2 = conditions: Homo sapiens, LK-2;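 note: growth inhibition of LK-2 cells, read out with a viability assay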
Description: SANGER: Inhibition of human LK-2 cell growth in a cell viability assay.

MDA-MB-415 = conditions: Homo sapiens, MDA-MB-415
MFE-280 = conditions: Homo sapiens, MFE-280;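 note: growth inhibition of MFE-280 cells, determined with a cell viability readout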
Description: SANGER: Inhibition of human MFE-280 cell growth in a cell viability assay.

MG-63 = conditions: Homo sapiens, MG-63;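 note: growth inhibition of human MG-63 cells, read out with a cell viability assay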
Description: SANGER: Inhibition of human MG-63 cell growth in a cell viability assay.

MHH-ES-1 = conditions: Homo sapiens, MHH-ES-1;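 note: cell growth inhibition measured by a cell viability assay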
Description: SANGER: Inhibition of human MHH-ES-1 cell growth in a cell viability assay.

NCI-H1437 = conditions: Homo sapiens, NCI-H1437;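 note: growth inhibition of human NCI-H1437 cells, read out by a cell viability assay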
Description: SANGER: Inhibition of human NCI-H1437 cell growth in a cell viability assay.

NCI-H1651 = conditions: Homo sapiens, NCI-H1651;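 note: Read-out is a cell viability assay, with IC50 expressing inhibition of NCI-H1651 cell growth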
Description: SANGER: Inhibition of human NCI-H1651 cell growth in a cell viability assay.

NCI-H1693 = conditions: Homo sapiens, NCI-H1693;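 note: growth inhibition of the human cell line, read out with a cell viability assay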
Description: SANGER: Inhibition of human NCI-H1693 cell growth in a cell viability assay.

NCI-H2029 = conditions: Homo sapiens, NCI-H2029;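 note: Read-out is a viability assay on the cultured cells, and IC50 is the concentration that suppresses cell growth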
Description: SANGER: Inhibition of human NCI-H2029 cell growth in a cell viability assay.

NCI-H2228 = conditions: Homo sapiens, NCI-H2228;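 note: growth inhibition of human NCI-H2228 cells, read out by a cell viability assay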
Description: SANGER: Inhibition of human NCI-H2228 cell growth in a cell viability assay.

NCI-H2347 = conditions: Homo sapiens, NCI-H2347;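 note: growth inhibition of the cell line, read out with a cell viability assay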
Description: SANGER: Inhibition of human NCI-H2347 cell growth in a cell viability assay.

NCI-H460 = conditions: Homo sapiens, NCI-H460;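 note: cell viability assay scoring growth inhibition of human NCI-H460 cells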
Description: SANGER: Inhibition of human NCI-H460 cell growth in a cell viability assay.

NCI-H727 = conditions: Homo sapiens, NCI-H727;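 note: growth inhibition of human NCI-H727 cells, read out with a cell viability assay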
Description: SANGER: Inhibition of human NCI-H727 cell growth in a cell viability assay.

OVCAR-5 = conditions: Homo sapiens, OVCAR-5;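 note: growth inhibition of human OVCAR-5 cells, read out with a cell viability assay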
Description: SANGER: Inhibition of human OVCAR-5 cell growth in a cell viability assay.

RMG-I = conditions: Homo sapiens, RMG-I;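 note: growth inhibition of human RMG-I cells, read out with a cell viability assay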
Description: SANGER: Inhibition of human RMG-I cell growth in a cell viability assay.

SBC-5 = conditions: Homo sapiens, SBC-5;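 note: cell viability assay read-out, IC50 is the concentration that inhibits growth of the cells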
Description: SANGER: Inhibition of human SBC-5 cell growth in a cell viability assay.

SK-MES-1 = conditions: Homo sapiens, SK-MES-1;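 note: growth inhibition of human SK-MES-1 cells, read out with a cell viability assay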
Description: SANGER: Inhibition of human SK-MES-1 cell growth in a cell viability assay.

SNU-423 = conditions: Homo sapiens, SNU-423
Description: SANGER: Inhibition of human SNU-423 cell growth in a cell viability assay.

SW1463 = conditions: Homo sapiens, SW1463;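 note: growth inhibition of SW1463 cells, determined with a cell viability assay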
Description: SANGER: Inhibition of human SW1463 cell growth in a cell viability assay.

SW1710 = conditions: Homo sapiens, SW1710;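 note: growth inhibition of SW1710 cells, determined with a cell viability assay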
Description: SANGER: Inhibition of human SW1710 cell growth in a cell viability assay.

SiHa = conditions: Homo sapiens, SiHa;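 note: Viability-based readout of growth inhibition in SiHa cells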
Description: SANGER: Inhibition of human SiHa cell growth in a cell viability assay.

5637 = conditions: Homo sapiens
Description: SANGER: Inhibition of human 5637 cell growth in a cell viability assay.

8305C = conditions: Homo sapiens, 8305C
Description: SANGER: Inhibition of human 8305C cell growth in a cell viability assay.

A 172 = conditions: Homo sapiens, A 172;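 note: growth inhibition of A172 cells, measured with a cell viability readout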
Description: SANGER: Inhibition of human A172 cell growth in a cell viability assay.

BT-549 = conditions: Homo sapiens, BT-549
Description: SANGER: Inhibition of human BT-549 cell growth in a cell viability assay.

BXPC-3 = conditions: Homo sapiens, BXPC-3;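 note: growth inhibition of human BxPC-3 cells, read out by a cell viability assay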
Description: SANGER: Inhibition of human BxPC-3 cell growth in a cell viability assay.

CAL-72 = conditions: Homo sapiens, CAL-72;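 note: cell viability assay measuring inhibition of proliferation in the CAL-72 cell line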
Description: SANGER: Inhibition of human CAL-72 cell growth in a cell viability assay.

VMRC-RCZ = conditions: Homo sapiens, VMRC-RCZ;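 note: growth inhibition measured with a cell viability assay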
Description: SANGER: Inhibition of human VMRC-RCZ cell growth in a cell viability assay.

YAPC = conditions: Homo sapiens, YAPC;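 note: growth inhibition of YAPC cells, measured with a cell viability assay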
Description: SANGER: Inhibition of human YAPC cell growth in a cell viability assay.

YH-13 = conditions: Homo sapiens, YH-13;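 note: cell viability readout of growth suppression in the human YH-13 cell line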
Description: SANGER: Inhibition of human YH-13 cell growth in a cell viability assay.

Measured: IC50

COc1cc2c(Nc3ccc(NC(=O)c4ccccc4)cc3)ncnc2cc1OCCCN1CCOCC1
3410 nM: MFE-280
2130 nM: MHH-ES-1
3370 nM: HSC-3
3110 nM: EFO-21
3180 nM: EW-22
984 nM: A 172
1650 nM: LK-2
3740 nM: NCI-H1651
3070 nM: NCI-H460
> 4000 nM: all other assays above

Nc1cccc2c1CN(C1CCC(=O)NC1=O)C2=O (stereo not given) [LENALIDOMIDE]
> 5000 nM: all assays above

CC1(C)CNc2cc(NC(=O)c3cccnc3NCc3ccncc3)ccc21 [MOTESANIB]
> 2000 nM: all assays above

Cc1cn(-c2cc(NC(=O)c3ccc(C)c(Nc4nccc(-c5cccnc5)n4)c3)cc(C(F)(F)F)c2)cn1 [NILOTINIB]
> 2000 nM: all assays above

CCN(CC)CCCCNc1ncc2cc(-c3cc(OC)cc(OC)c3)c(NC(=O)NC(C)(C)C)nc2n1 [PD-173074]
859 nM: MFE-280
1700 nM: A 172
> 2000 nM: all other assays above
